Data as given in the supplement of paper PMC10307832.

Tests used:
Experiment in all cases: relative viability (nuclei count vs DMSO), 5 days (fraction); higher = more cells survive
[1] = compound: CC(C)(C)c1nc(-c2cccc(NS(=O)(=O)c3c(F)cccc3F)c2F)c(-c2ccnc(N)n2)s1 [Dabrafenib] + COc1cccc2cc(-c3nc([C@H]4CC[C@H](C(=O)O)CC4)n4ncnc(N)c34)[nH]c12 [OSI-027] (partner 0.5 µM)
Procedure, shortened: (§1)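 Lung cancer cell lines were seeded in 1536-well plates and dosed by pin tool the next day, with either a single drug or a fixed anchor-drug dose combined with five library-drug doses (not always all listed) spaced in √10 steps. Five days later, one step fixed the cells and stained their nuclei (final 0.05% Triton X-100, 1% formaldehyde, 1 ug/ml Hoechst), and nuclei were counted on 4× images. Relative viability is the nuclei count in treated wells divided by the count in vehicle wells, and each value is the median of duplicate plates.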

[2] = compound: CC(C)(C)c1nc(-c2cccc(NS(=O)(=O)c3c(F)cccc3F)c2F)c(-c2ccnc(N)n2)s1 [Dabrafenib] + Cc1cc(Nc2cc(N3CCN(C)CC3)nc(Sc3ccc(NC(=O)C4CC4)cc3)n2)n[nH]1 [Tozasertib] (partner 0.1 µM)
Procedure, shortened: as §1

[3] = compound: CC(C)(C)c1nc(-c2cccc(NS(=O)(=O)c3c(F)cccc3F)c2F)c(-c2ccnc(N)n2)s1 [Dabrafenib] + CS(=O)(=O)N1CCN(Cc2cc3nc(-c4cccc5[nH]ncc45)nc(N4CCOCC4)c3s2)CC1 [Pictilisib] (partner 1 µM)
Procedure, shortened: as §1

[4] = compound: CC(C)(C)c1nc(-c2cccc(NS(=O)(=O)c3c(F)cccc3F)c2F)c(-c2ccnc(N)n2)s1 [Dabrafenib] + C[C@]1(O)C[C@@H](c2nc(-c3ccc4ccc(-c5ccccc5)nc4c3)c3c(N)nccn32)C1 [Linsitinib] (partner 1 µM)
Procedure, shortened: as §1

| Cell Line | relative viability ([1]; first compound 0.009487 µM) | relative viability ([1]; first compound 0.03 µM) | relative viability ([1]; first compound 0.09487 µM) | relative viability ([1]; first compound 0.3 µM) | relative viability ([2]; first compound 0.009487 µM) | relative viability ([2]; first compound 0.03 µM) | relative viability ([2]; first compound 0.09487 µM) | relative viability ([2]; first compound 0.3 µM) | relative viability ([3]; first compound 0.009487 µM) | relative viability ([3]; first compound 0.03 µM) | relative viability ([3]; first compound 0.09487 µM) | relative viability ([3]; first compound 0.3 µM) | relative viability ([4]; first compound 0.009487 µM) | relative viability ([4]; first compound 0.03 µM) | relative viability ([4]; first compound 0.09487 µM) | relative viability ([4]; first compound 0.3 µM) | relative viability ([3]; first compound 0.003 µM) | relative viability ([1]; first compound 0.003 µM) | relative viability ([2]; first compound 0.003 µM) | relative viability ([4]; first compound 0.003 µM) |
| --- | --- | --- | --- | --- | --- | --- | --- | --- | --- | --- | --- | --- | --- | --- | --- | --- | --- | --- | --- | --- |
| NCI-H23 | 0.602 | 0.471 | 0.435 | 0.486 | 0.431 | 0.344 | 0.337 | 0.375 | 0.465 | 0.461 | 0.455 | 0.503 | 0.67 | 0.553 | 0.645 | 0.547 | – | – | – | – |
| A549 | – | – | – | – | – | – | – | – | 0.487 | 0.519 | 0.544 | 0.64 | 0.549 | 0.374 | 0.697 | 0.568 | 0.497 | – | – | – |
| NCI-H661 | 0.709 | 0.676 | 0.682 | 0.675 | 0.364 | 0.372 | 0.38 | 0.352 | 0.376 | – | 0.34 | 0.48 | 0.594 | 0.375 | 0.521 | 0.52 | 0.283 | 0.785 | 0.344 | 0.501 |
| NCI-H650 | 0.578 | 0.427 | 0.331 | 0.301 | 0.667 | 0.738 | 0.502 | 0.38 | 0.977 | 0.878 | 0.688 | 0.661 | 1.27 | 0.769 | 0.43 | 0.516 | – | – | – | – |
| NCI-H2009 | 0.617 | 0.321 | 0.249 | 0.251 | 0.759 | 0.672 | 0.649 | 0.62 | 0.797 | 0.475 | 0.334 | 0.346 | 1.09 | 1.08 | 1.01 | 0.861 | 0.292 | 0.423 | 0.703 | 1.16 |
| LC-2-ad | 1.14 | 0.83 | 0.76 | 0.859 | 0.453 | 0.422 | 0.447 | 0.429 | 0.137 | 0.408 | 0.455 | 0.497 | 0.768 | 0.802 | 0.764 | 0.851 | 0.489 | – | – | 0.93 |
| HCC-366 | 0.988 | 0.501 | 0.773 | 1.08 | 0.187 | 0.0643 | 0.104 | 0.0995 | 0.183 | 0.0973 | 0.169 | 0.118 | 0.787 | 0.0905 | 0.549 | 0.892 | 0.161 | 0.109 | 0.088 | – |
| UMC-11 | 0.504 | 0.481 | 0.475 | 0.49 | 0.202 | 0.19 | 0.197 | 0.231 | 0.819 | 0.621 | 0.832 | 0.888 | 1.09 | 0.985 | 0.982 | 1.03 | 0.749 | 0.439 | 0.189 | 1.12 |
| PC-3 [JPC-3] | 0.84 | 0.771 | 0.705 | 0.801 | 0.957 | 0.941 | 0.827 | 0.929 | 0.982 | 0.916 | 0.745 | 0.818 | 0.977 | 0.955 | 0.964 | 0.978 | 0.642 | 0.629 | 0.934 | 0.943 |
